Assay results as given in US20140348819A1, “Methods of Treating Cancer” (Dana-Farber Cancer Institute, Inc., priority 2011, published 2014).

What was measured:
WiDr = experiment: Sensitivity of colorectal cancer cell line to PLX4720 with or without stromal cells (FIG. 2B); format: cell-based, human; settings: colorectal cancer cell lines represented by WiDr
Excerpt: The propensity of tumors to develop resistance to a wide range of chemotherapy drugs imposes a critical hurdle to the treatment of most types of cancers. While the role of the cellular microenvironment in tumor progression and metastasis has been increasingly studied in recent years, its effects on drug resistance are still underappreciated and poorly understood. An optimized high-throughput screening system was used to explore the prevalence and significance of stromal cell-mediated chemoresistance in solid tumors. Forty-six GFP-labeled human cancer cell lines (Table 1) were cultured on 384-well plates either alone or co-cultured with each one of 23 human stromal cell lines (Table 3). The effects of a diverse range of widely used chemotherapy drugs (Table 2) on the proliferation of the single- or co-cultured cancer cell lines were assessed through GFP readings and through fluorescence microscopy. Stroma-mediated primary chemoresistance was clearly detected across most cancer cell lines and chemotherapy drugs (FIGS. 1A and 1B, Tables 3 and 4). In most cases, only a small subset of the stromal cells could render a specific cancer-cell line more resistant to a specific drug, and this subset was usually the same across cancer cell lines from the same origin (FIGS. 1-4). […]

[1] = test system: V600E B-RAF melanoma cell lines; settings: pre-clinical trials; cited from earlier work
G361 = experiment: Proliferation of G361 melanoma cells alone or co-cultured with stromal cell lines, PLX4720 with or without Crizotinib (Table 5); format: cell-based, human; settings: for normalized proliferation: G361, PLX4720 - 2 uM, DMSO (no Crizotinib)
Excerpt: (§1) The DLD-1 cells do harbor the BRAF activating mutation V600E but are not sensitive at all to BRAF inhibition. They actually grow faster under BRAFi.
(§2) Proliferation was quantified after 7 days and normalized to non-treated cells. Bars represent standard error between replicates (n=3).
(§3) The propensity of tumors to develop resistance to a wide range of chemotherapy drugs imposes a critical hurdle to the treatment of most types of cancers. […] An optimized high-throughput screening system was used to explore the prevalence and significance of stromal cell-mediated chemoresistance in solid tumors. Forty-six GFP-labeled human cancer cell lines (Table 1) were cultured on 384-well plates either alone or co-cultured with each one of 23 human stromal cell lines (Table 3). The effects of a diverse range of widely used chemotherapy drugs (Table 2) on the proliferation of the single- or co-cultured cancer cell lines were assessed through GFP readings and through fluorescence microscopy.

SK-MEL-5 = experiment: Proliferation of SK-MEL-5 melanoma cells alone or co-cultured with stromal cell lines, PLX4720 with or without Crizotinib (Table 5); format: cell-based, human; settings: DMSO (no Crizotinib)
Excerpt: as §1, §2, §3

SK-MEL-28 = experiment: Proliferation of SK-MEL-28 melanoma cells alone or co-cultured with stromal cell lines, PLX4720 with or without Crizotinib (Table 5); format: cell-based, human; settings: DMSO (no Crizotinib)
Excerpt: as §1, §2, §3

CCCS(=O)(=O)Nc1ccc(F)c(C(=O)c2c[nH]c3ncc(Cl)cc23)c1F [PLX4720]
sensitivity to BRAFi (WiDr): largely not sensitive
sensitivity of V600E B-RAF melanoma cell lines [1]: extremely sensitive
normalized proliferation (G361; 1069sk): 0.1
normalized proliferation (G361; HS-5): 0.2
normalized proliferation (G361; LL86): 0.5
normalized proliferation (G361; No Fibro): 0.1
normalized proliferation (G361; Wi-38): 0.4
sensitivity to the BRAF inhibitor PLX4720 (G361; melanoma cell lines represented by G-361, FIG. 2B): sensitive
normalized proliferation (SK-MEL-5; 1069sk, PLX4720 - 2 uM): 0.4
normalized proliferation (SK-MEL-5; HS-5, PLX4720 - 2 uM): 0.5
normalized proliferation (SK-MEL-5; LL86, PLX4720 - 2 uM): 0.8
normalized proliferation (SK-MEL-5; No Fibro, PLX4720 - 2 uM): 0.3
normalized proliferation (SK-MEL-5; Wi-38, PLX4720 - 2 uM): 0.6
normalized proliferation (SK-MEL-28; 1069sk, PLX4720 - 2 uM): 0.1
normalized proliferation (SK-MEL-28; HS-5, PLX4720 - 2 uM): 0.1
normalized proliferation (SK-MEL-28; LL86, PLX4720 - 2 uM): 0.3
normalized proliferation (SK-MEL-28; No Fibro, PLX4720 - 2 uM): 0.1
normalized proliferation (SK-MEL-28; Wi-38, PLX4720 - 2 uM): 0.4
